# Experiments:
# ALK kinase = target: T1, ALK kinase (Homo sapiens, UniProt Q9UM73); assay: ALK kinase inhibition test; assay type: biochemical; settings: 0.4 ng/well ALK kinase, 5 µM ATP, fluorescence 665 nm/615 nm
# T1 construct: purchased Thermo Scientific
# Method: The inhibitory activity of the compound in the present application on ALK kinase will be determined through in vitro tests, which can be represented by IC50 value.
# 4 µL of the diluted solution of the test compound and 2 µL of 0.4 ng/well ALK kinase solution (Thermo Scientific) were added into reaction wells in turn, incubated for 10 min at room temperature, then 4 µL of 0.7 µM biotin-labeled tyrosine kinase substrate and 5 µM ATP solution were added to start the kinase reaction.
# Software Graphpad Prism 6 was used to fit an IC50 curve and calculate an IC50 value.
# [1] = tested on: human anaplastic large cell lymphoma cell Karpas 299; assay: ALK gene fusion cell proliferation inhibition test (CCK-8); assay type: cell-based; settings: 72 hours incubation, CCK-8, absorbance at 450 nm
# Method: The 96-well culture plate was placed in a 5 % carbon dioxide incubator at 37 °C to be cultured overnight. A test compound was formulated into a 10 mM storage solution with DMSO, and the 10mM storage solution was gradually diluted with DMSO at a dilution ration of 1:4 to obtain 9 concentration gradients of solutions of the test compound. The test compound was diluted with culture medium to 5 times the set final concentration of corresponding action, and the diluted solution of the test compound was added at 25 µL/well to corresponding cell wells according to the set compound layout, and then incubated in a 5 % carbon dioxide incubator at 37 °C for 72 hours. After 72 hours, 10 µL of CCK-8 was added into a cell culture medium, and the culture solution was sucked from adherent cells, then a freshly prepared CCK-8 detection solution was added and the cells were incubated in a 37 °C incubator for 1-4 hours. The absorbance at 450 nm wavelength on the SpectraMax i3X Microplate Reader was measured after gently shaking, with the absorbance at 650 nm as a reference.
# T1 sequence (Q9UM73 19-1620): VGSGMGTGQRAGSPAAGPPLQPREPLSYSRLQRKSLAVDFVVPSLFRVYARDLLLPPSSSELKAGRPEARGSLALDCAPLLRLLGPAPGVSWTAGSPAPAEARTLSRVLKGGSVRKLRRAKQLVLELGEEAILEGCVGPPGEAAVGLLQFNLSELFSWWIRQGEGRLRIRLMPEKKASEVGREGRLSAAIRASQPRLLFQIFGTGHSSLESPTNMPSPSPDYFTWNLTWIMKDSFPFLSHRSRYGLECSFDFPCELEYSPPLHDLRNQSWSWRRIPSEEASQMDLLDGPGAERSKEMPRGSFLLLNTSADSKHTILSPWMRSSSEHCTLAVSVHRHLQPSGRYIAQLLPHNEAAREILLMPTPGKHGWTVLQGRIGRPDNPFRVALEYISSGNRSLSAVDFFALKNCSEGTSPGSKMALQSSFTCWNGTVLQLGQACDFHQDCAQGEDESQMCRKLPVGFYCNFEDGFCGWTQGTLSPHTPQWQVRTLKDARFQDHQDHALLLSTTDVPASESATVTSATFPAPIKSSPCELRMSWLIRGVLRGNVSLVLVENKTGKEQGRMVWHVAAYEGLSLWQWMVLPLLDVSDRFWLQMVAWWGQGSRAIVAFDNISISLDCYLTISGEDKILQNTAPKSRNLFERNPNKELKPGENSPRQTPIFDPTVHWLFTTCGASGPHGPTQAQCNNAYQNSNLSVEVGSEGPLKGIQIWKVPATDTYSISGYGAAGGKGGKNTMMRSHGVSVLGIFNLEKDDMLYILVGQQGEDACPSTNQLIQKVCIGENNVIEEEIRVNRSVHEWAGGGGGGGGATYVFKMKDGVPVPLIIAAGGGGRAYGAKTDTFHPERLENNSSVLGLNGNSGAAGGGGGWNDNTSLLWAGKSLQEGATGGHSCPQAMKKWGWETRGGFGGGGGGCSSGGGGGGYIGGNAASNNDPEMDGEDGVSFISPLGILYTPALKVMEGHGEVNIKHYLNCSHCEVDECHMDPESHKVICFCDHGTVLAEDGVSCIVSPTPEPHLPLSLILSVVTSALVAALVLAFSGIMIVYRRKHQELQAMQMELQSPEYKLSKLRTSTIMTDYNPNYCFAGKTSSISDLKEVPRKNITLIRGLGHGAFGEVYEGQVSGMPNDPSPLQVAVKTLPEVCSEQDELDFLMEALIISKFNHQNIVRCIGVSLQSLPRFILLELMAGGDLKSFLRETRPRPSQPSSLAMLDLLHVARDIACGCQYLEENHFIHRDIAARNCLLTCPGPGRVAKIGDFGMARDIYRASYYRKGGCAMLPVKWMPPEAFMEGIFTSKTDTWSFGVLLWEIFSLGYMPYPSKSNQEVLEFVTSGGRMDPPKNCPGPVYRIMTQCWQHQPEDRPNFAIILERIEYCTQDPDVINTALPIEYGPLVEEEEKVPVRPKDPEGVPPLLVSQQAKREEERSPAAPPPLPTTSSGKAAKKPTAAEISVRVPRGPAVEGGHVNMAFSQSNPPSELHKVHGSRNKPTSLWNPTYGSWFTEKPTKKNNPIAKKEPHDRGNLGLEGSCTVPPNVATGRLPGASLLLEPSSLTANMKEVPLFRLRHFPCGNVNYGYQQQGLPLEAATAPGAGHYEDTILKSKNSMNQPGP
SMILES,IC50 (ALK kinase),IC50 [1]
"C#Cc1ccc2c3c([nH]c2c1)C(C)(C)c1cc(N2CCC(N(C)C)CC2)c(Cl)cc1C3=O [Example E21, 9-chloro-8-(4-(dimethylamino)piperidin-1-yl)-3-ethynyl-6,6-dimethyl-5,6-dihydro-11H-benzo[b]c arbazol-11-one]",12.7 nM,10.4 nM
"C#Cc1ccc2c3c([nH]c2c1)C(C)(C)c1cc(N2CCC(N4CCN(C)CC4)CC2)c(Cl)cc1C3=O [Example E22, 9-chloro-3-ethynyl-6,6-dimethyl-8-(4-(4-methylpiperazin-1-yl)piperidin-1-yl)-5,6-dihydro-11H-be nzo[b]carbazol-11-one]",13.5 nM,4.67 nM
"C#Cc1ccc2c3c([nH]c2c1)C(C)(C)c1cc(N2CCNCC2)c(CC)cc1C3=O [Example E7, 9-ethyl-3-ethynyl-6,6-dimethyl-8-(piperazin-1-yl)-5H-benzo[b]carbazol-11(6H)-one]",7.41 nM,40.3 nM
"CC#Cc1ccc2c3c([nH]c2c1)C(C)(C)c1cc(N2CCC(N4CCOCC4)CC2)c(CC)cc1C3=O [Example E27, 9-ethyl-6,6-dimethyl-8-(4-morpholinopiperidin-1-yl)-3-(prop-1-yn-1-yl)-5,6-dihydro-11H-benzo[b]carbazol-11-one]",10.2 nM,110 nM
"C#Cc1ccc2c3c([nH]c2c1)C(C)(C)c1cc(N2CCNCC2)c(Cl)cc1C3=O [Example E24, 9-chloro-3-ethynyl-6,6-dimethyl-8-(piperazin-1-yl)-5,6-dihydro-11H-benzo[b]carbazol-11-one]",3.29 nM,18.2 nM
"C#Cc1ccc2c3c([nH]c2c1)C(C)(C)c1cc(N2CCC(N4CCC4)CC2)c(Cl)cc1C3=O [Example E25, 8-(4-(azetidin-1-yl)piperidin-1-yl)-9-chloro-3-ethynyl-6,6-dimethyl-5,6-dihydro-11H-benzo[b]car bazol-11-one]",49.9 nM,53 nM
"C#Cc1ccc2c3c([nH]c2c1)C(C)(C)c1cc(N2CCC(N4CCOCC4)CC2)c(Cl)cc1C3=O [Example E23, 9-chloro-3-ethynyl-6,6-dimethyl-8-(4-morpholinopiperidin-1-yl)-5,6-dihydro-11H-benzo[b]carbazol-11-one]",2.61 nM,22.2 nM
"C#Cc1ccc2c3c([nH]c2c1)C(C)(C)c1cc(N2CCC(N4CCOCC4)CC2)c(CC)cc1C3=O [Example E1, 9-ethyl-3-ethynyl-6,6-dimethyl-8-(4-morpholinopiperidin-1-yl)-5,6-dihydro-11H-benzo[b]carbazol-11-one]",5.09 nM,7.34 nM
"C#Cc1ccc2c3c([nH]c2c1)C(C)(C)c1cc(N2CCC(N4CCN(C5CC5)CC4)CC2)c(CC)cc1C3=O [Example E11, 8-(4-(4-cyclopropylpiperazin-1-yl)piperidin-1-yl)-9-ethyl-3-ethynyl-6,6-dimethyl-5,6-dihydro-11 H-benzo[b]carbazol-11-one]",59 nM,186 nM
"C#Cc1ccc2c3c([nH]c2c1)C(C)(C)c1cc(N2CCC(N4CCN(C5CC5)CC4)CC2)c(C#N)cc1C3=O [Example E18, 8-(4-(4-cyclopropylpiperazin-1-yl)piperidin-1-yl)-3-ethynyl-6,6-dimethyl-11-oxo-6,11-dihydro-5 H-benzo[b]carbazole-9-carbonitrile]",10.3 nM,1.71 nM
"C#Cc1ccc2c3c([nH]c2c1)C(C)(C)c1cc(N2CCC(N4CCC4)CC2)c(CC)cc1C3=O [Example E4, 8-(4-(azetidin-1-yl)piperidin-1-yl)-9-ethyl-3-ethynyl-6,6-dimethyl-5,6-dihydro-11H-benzo[b]carbazol-11-one]",6.35 nM,32.6 nM
"C#Cc1ccc2c3c([nH]c2c1)C(C)(C)c1cc(C2CCN(C4CC4)CC2)c(CC)cc1C3=O [Example E10, 8-(1-cyclopropylpiperidin-4-yl)-9-ethyl-3-ethynyl-6,6-dimethyl-5,6-dihydro-11H-benzo[b]carbazol-11-one]",20.5 nM,208 nM
"CCc1cc2c(cc1N1CCC(N3CCOCC3)CC1)C(C)(C)c1[nH]c3cc(C#CC4CC4)ccc3c1C2=O [Example E26, 3-(cyclopropylethynyl)-9-ethyl-6,6-dimethyl-8-(4-morpholinopiperidin-1-yl)-5,6-dihydro-11H-be nzo[b]carbazol-11-one]",38.4 nM,20.6 nM
"C#Cc1ccc2c3c([nH]c2c1)C(C)(C)c1cc(C2CCN(C)CC2)c(CC)cc1C3=O [Example E9, 9-ethyl-3-ethynyl-6,6-dimethyl-8-(1-methylpiperidin-4-yl)-5,6-dihydro-11H-benzo[b]carbazol-11-one]",8.11 nM,54.2 nM
"C#Cc1ccc2c3c([nH]c2c1)C(C)(C)c1cc(C2CCNCC2)c(CC)cc1C3=O [Example E8, 9-ethyl-3-ethynyl-6,6-dimethyl-8-(piperidin-4-yl)-5,6-dihydro-11H-benzo[b]carbazol-11-one]",6.6 nM,109 nM
"C#Cc1ccc2c3c([nH]c2c1)C(C)(C)c1cc(N2CCC(N4CCCC4)CC2)c(CC)cc1C3=O [Example E5, 9-ethyl-3-ethynyl-6,6-dimethyl-8-(4-(pyrrolidin-1-yl)piperidin-1-yl)-5,6-dihydro-11H-benzo[b]car bazol-11-one]",13.8 nM,24.9 nM
"C#Cc1ccc2c3c([nH]c2c1)C(C)(C)c1cc(N2CCN(C4CC4)CC2)c(CC)cc1C3=O [Example E3, 8-(4-cyclopropylpiperazin-1-yl)-9-ethyl-3-ethynyl-6,6-dimethyl-5,6-dihydro-11H-benzo[b]carbazol-11-one]",37.8 nM,144 nM

# Further lines, results first:
IC50 (ALK kinase),IC50 [1],SMILES
40.1 nM,55.9 nM,"C#Cc1ccc2c3c([nH]c2c1)C(C)(C)c1cc(N2CCN(C4CC4)CC2)c(Cl)cc1C3=O [Example E20, 9-chloro-8-(4-cyclopropylpiperazin-1-yl)-3-ethynyl-6,6-dimethyl-5,6-dihydro-11H-benzo[b]carbazol-11-one]"
5.76 nM,7.52 nM,"C#Cc1ccc2c3c([nH]c2c1)C(C)(C)c1cc(N2CCN(C)CC2)c(C#N)cc1C3=O [Example E13, 3-ethynyl-6,6-dimethyl-8-(4-methylpiperazin-1-yl)-11-oxo-6,11-dihydro-5H-benzo[b]carbazole-9-carbonitrile]"
3.73 nM,11.7 nM,"C#Cc1ccc2c3c([nH]c2c1)C(C)(C)c1cc(N2CCN(C)CC2)c(Cl)cc1C3=O [Example E19, 9-chloro-3-ethynyl-6,6-dimethyl-8-(4-methylpiperazin-1-yl)-5,6-dihydro-11H-benzo[b]carbazol-1 1-one]"
6.51 nM,11.4 nM,"C#Cc1ccc2c3c([nH]c2c1)C(C)(C)c1cc(N2CCC(N4CCCC4)CC2)c(C#N)cc1C3=O [Example E14, 3-ethynyl-6,6-dimethyl-11-oxo-8-(4-(pyrrolidin-1-yl)piperidin-1-yl)-6,11-dihydro-5H-benzo[b]car bazole-9-carbonitrile]"
2.62 nM,5 nM,"C#Cc1ccc2c3c([nH]c2c1)C(C)(C)c1cc(N2CCC(NC)CC2)c(C#N)cc1C3=O [Example E28, 3-ethynyl-6,6-dimethyl-8-(4-(methylamino)piperidin-1-yl)-11-oxo-6,11-dihydro-5H-benzo[b]carb azole-9-carbonitrile]"
5.7 nM,3.27 nM,"C#Cc1ccc2c3c([nH]c2c1)C(C)(C)c1cc(N2CCC(N4CCN(C)CC4)CC2)c(C#N)cc1C3=O [Example E16, 3-ethynyl-6,6-dimethyl-8-(4-(4-methylpiperazin-1-yl)piperidin-1-yl)-11-oxo-6,11-dihydro-5H-ben zo[b]carbazole-9-carbonitrile]"
4.62 nM,8.29 nM,"C#Cc1ccc2c3c([nH]c2c1)C(C)(C)c1cc(N2CCC(N(C)C)CC2)c(C#N)cc1C3=O [Example E15, 8-(4-(dimethylamino)piperidin-1-yl)-3-ethynyl-6,6-dimethyl-11-oxo-6,11-dihydro-5H-benzo[b]car bazole-9-carbonitrile]"
49 nM,33.2 nM,"C#Cc1ccc2c3c([nH]c2c1)C(C)(C)c1cc(N2CCN(C4CC4)CC2)c(C#N)cc1C3=O [Example E17, 8-(4-cyclopropylpiperazin-1-yl)-3-ethynyl-6,6-dimethyl-11-oxo-6,11-dihydro-5H-benzo[b]carbazole-9-carbonitrile]"
7.38 nM,18.1 nM,"C#Cc1ccc2c3c([nH]c2c1)C(C)(C)c1cc(N2CCN(C)CC2)c(CC)cc1C3=O [Example E2, 9-ethyl-3-ethynyl-6,6-dimethyl-8-(4-methylpiperazin-1-yl)-5,6-dihydro-11H-benzo[b]carbazol-11-one]"
6.78 nM,8.71 nM,"C#Cc1ccc2c3c([nH]c2c1)C(C)(C)c1cc(N2CCC(N4CCOCC4)CC2)c(C#N)cc1C3=O [Example E12, 3-ethynyl-6,6-dimethyl-8-(4-morpholinopiperidin-1-yl)-11-oxo-6,11-dihydro-5H-benzo[b]carbazole-9-carbonitrile]"

# From EP4321514B1, “COMPOUND HAVING ALK INHIBITORY ACTIVITY, PREPARATION METHOD THEREFOR AND USE THEREOF” (CGeneTech (Suzhou, China) Co., Ltd., priority 2021, dated 2022)
